# Biological target: 5-hydroxytryptamine receptor 6 (Homo sapiens, UniProt P50406)
# Experiment: Displacement of [3H]LSD from human 5HT6 receptor expressed in HEK293 cells
# Format: cell-based
# Sequence of 5-hydroxytryptamine receptor 6 (P50406 whole entry): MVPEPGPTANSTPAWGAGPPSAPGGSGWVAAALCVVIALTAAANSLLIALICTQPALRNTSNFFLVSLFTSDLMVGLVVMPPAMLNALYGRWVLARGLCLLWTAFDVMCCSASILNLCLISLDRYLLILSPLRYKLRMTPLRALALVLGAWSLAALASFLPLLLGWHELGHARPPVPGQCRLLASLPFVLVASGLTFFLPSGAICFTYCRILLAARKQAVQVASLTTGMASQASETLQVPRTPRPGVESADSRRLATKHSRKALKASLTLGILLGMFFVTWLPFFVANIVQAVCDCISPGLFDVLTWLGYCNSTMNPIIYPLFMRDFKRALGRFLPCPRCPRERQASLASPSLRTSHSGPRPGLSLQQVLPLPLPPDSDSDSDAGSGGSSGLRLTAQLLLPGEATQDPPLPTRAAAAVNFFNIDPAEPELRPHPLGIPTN
row,SMILES,Ki
1,Nc1ccc(S(=O)(=O)n2ccc3ccccc32)cc1,10 nM
2,c1cc(N2CCNCC2)c2cc[nH]c2c1,2700 nM
3,Nc1ccc(S(=O)(=O)n2ccc3c(N4CCNCC4)cccc32)cc1,0.4 nM
4,CNc1cc(NC)c2ccn(S(=O)(=O)c3ccccc3)c2c1,26 nM

# The remaining lines, values ahead:
row,Ki,SMILES
1,980 nM,Nc1ccc(S(=O)(=O)n2ccc3c([N+](=O)[O-])cc([N+](=O)[O-])cc32)cc1
2,1.9 nM,CNc1cc(NC)c2ccn(S(=O)(=O)c3ccc(N)cc3)c2c1
3,21 nM,CNc1cccc2c1ccn2S(=O)(=O)c1ccc(N)cc1
4,7 nM,CNc1ccc2ccn(S(=O)(=O)c3ccc(N)cc3)c2c1

# — ChEMBL document CHEMBL1141871, “Binding of amine-substituted N1-benzenesulfonylindoles at human 5-HT6 serotonin receptors” (Bioorg Med Chem Lett, 2005)
